Measured values: US10988523B2, “Modified lipidated Relaxin B chain peptides and their therapeutic use” (Sanofi, priority 2018, dated 2021)
Values after ≈ are worked out from the molar mass of the structure shown. Read-outs that look alike come from different tables or passages of the source. *1 amine or outer side, *2 acyl side, *3 side chain or, on linkers, in order; H or OH if unused. Where a SMILES comes first, the peptide text is derived from it. Side-chain parts run from the residue outwards. [ ]: non-standard residue; d: D form. The star is where a group is joined. PEG12 = NCCOCCOCCOCCOCCOCCOCCOCCOCCOCCOCCOCCOCCC(=O)O; γGlu = O=C(O)[C@H](CCC(=O)[*:2])N[*:1]; Stearoyl = CCCCCCCCCCCCCCCCCC(=O)*; Palmitoyl = CCCCCCCCCCCCCCCC(=O)*; αMeK = C[C@](N)(CCCCN)C(=O)O; Nle = CCCC[C@H](N)C(=O)O; AEEA = NCCOCCOCC(=O)O; Aib = CC(C)(N)C(=O)O

Legend:
[1] = Stability testing of peptides in rat plasma or blood; assay type: in vitro ADME; settings: 37° C.; for Rat plasma stability % remaining T = 0: rat plasma or blood, T = 0 (reference), 5 μM
How it was run: (§1)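 Peptide at 5 µM final was incubated at 37 °C in heparinized rat or human plasma or blood, sampled up to 4 h, and extracted with acetonitrile/1% TFA. HPLC peak areas relative to t0 give % remaining peptide.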

[2] = Stability testing of peptides in human plasma or blood; assay type: in vitro ADME; settings: 37° C.; for Human Plasma stability % remaining T = 0: human plasma or blood, T = 0 (reference), 5 μM
How it was run: as §1

[3] = Solubility testing of peptides in buffer; assay type: physicochemical
RXFP1 = biological target: T1, RXFP1 (Homo sapiens, UniProt Q9HBX9); assay: OVCAR5 cAMP assay (HTRF), RXFP1 agonist activity; assay type: cell-based; settings: for EC50: OVCAR5 cells, cAMP HTRF, read-out: EC50 (nM), OVCAR 5 cells (cAMP); for Emax: OVCAR-5, maximal cAMP relative to H2-relaxin maximum (100%), read-out: EMax, OVCAR 5 cells (cAMP)
T1 construct: OVCAR5 cells expressing endogenous RXFP1; endogenous in cells; host or cells: OVCAR5 cells
T1 sequence (Q9HBX9 1-757): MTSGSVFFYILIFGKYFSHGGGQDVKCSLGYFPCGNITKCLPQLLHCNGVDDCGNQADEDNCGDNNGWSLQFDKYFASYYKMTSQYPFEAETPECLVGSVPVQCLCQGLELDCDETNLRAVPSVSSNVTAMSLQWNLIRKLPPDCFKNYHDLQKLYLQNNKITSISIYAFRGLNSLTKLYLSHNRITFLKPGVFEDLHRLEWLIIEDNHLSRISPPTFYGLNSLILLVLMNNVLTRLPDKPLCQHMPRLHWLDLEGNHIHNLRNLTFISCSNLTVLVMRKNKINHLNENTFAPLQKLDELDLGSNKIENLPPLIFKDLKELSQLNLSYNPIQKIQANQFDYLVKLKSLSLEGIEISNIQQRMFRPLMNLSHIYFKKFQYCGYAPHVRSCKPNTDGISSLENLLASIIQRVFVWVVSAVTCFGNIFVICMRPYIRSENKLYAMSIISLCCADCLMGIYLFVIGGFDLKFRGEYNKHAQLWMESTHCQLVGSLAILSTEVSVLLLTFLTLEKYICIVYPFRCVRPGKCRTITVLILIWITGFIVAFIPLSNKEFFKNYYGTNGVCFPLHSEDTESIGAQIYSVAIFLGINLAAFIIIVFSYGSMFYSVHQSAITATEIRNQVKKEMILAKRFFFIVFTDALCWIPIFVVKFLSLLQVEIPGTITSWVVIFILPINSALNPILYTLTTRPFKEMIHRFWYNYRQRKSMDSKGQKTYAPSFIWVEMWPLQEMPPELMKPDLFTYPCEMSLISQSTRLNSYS
How it was run: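 cAMP accumulation readout: after 1 mM IBMX for 40 min, endogenous-RXFP1 OVCAR5 cells got rising peptide concentrations without FCS, 30 min, 37° C, then lysis with HTRF cAMP reagents. Nonlinear regression gave EC50; Emax expressed relative to H2-relaxin maximum, same occasion.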

[4] = rat plasma, read-out: Rat plasma stability % remaining 1 h
[5] = rat plasma, read-out: Rat plasma stability % remaining 4 h
[6] = human plasma, read-out: Human Plasma stability % remaining 1 h
[7] = human plasma, read-out: Human Plasma stability % remaining 4 h

Rat plasma stability % remaining T = 0 [1] [%]	remaining at 1 h, 5 µM ([1]; whole blood, rat blood, read-out: Rat stability in blood % remaining 1 h) [%]	remaining at 4 h, 5 µM ([1]; whole blood, rat blood, read-out: Rat stability in blood % remaining 4 h) [%]	Human Plasma stability % remaining T = 0 [2] [%]	remaining at 1 h, 5 µM ([2]; whole blood, human blood, read-out: Human stability in blood % remaining 1 h) [%]	remaining at 4 h, 5 µM ([2]; whole blood, human blood, read-out: Human stability in blood % remaining 4 h) [%]	solubility ([3]; acetate buffer 50 mM pH 4.5, target solubility 10.0 mg/ml, read-out: Solubility Acetate buffer pH 4.5) [µg/mL]	solubility ([3]; phosphate buffer 50 mM pH 7.4, target solubility 10.0 mg/ml, read-out: Solubility phosphate buffer pH 7.4) [µg/mL]	EC50 (RXFP1) [nM]	Emax (RXFP1) [%]	remaining at 1 h, 5 µM [1, 4] [%]	remaining at 4 h, 5 µM [1, 5] [%]	remaining at 1 h, 5 µM [2, 6] [%]	remaining at 4 h, 5 µM [2, 7] [%]	solubility ([3]; acetate buffer 50 mM pH 4.5, target solubility 15.0 mg/ml, read-out: Solubility Acetate buffer pH 4.5) [µg/mL]	solubility ([3]; acetate buffer, pH 4.5, read-out: Solubility Acetate buffer pH 4.5) [µg/mL]	solubility ([3]; phosphate buffer, pH 7.4, read-out: Solubility phosphate buffer pH 7.4) [µg/mL]	SMILES
100	107	99	100	107	106	9800 (≈ 2280 µM)	> 10000	0.01	87	–	–	–	–	–	–	–	CCCCCCCCCCCCCCCC(=O)N[C@@H](CCC(=O)N[C@@H](CCC(=O)N[C@@H](CCC(=O)N[C@@H](CCC(=O)NCCCC[C@H](NC(=O)COCCOCCNC(=O)COCCOCCNC(=O)COCCOCCNC(=O)COCCOCCNC(=O)[C@H](CCCCNC(C)=O)NC(=O)[C@H](C)NC(=O)[C@H](CCCNC(=N)N)NC(=O)[C@](C)(CCCCN)NC(=O)[C@H](CO)NC(=O)[C@H](Cc1ccccc1)NC(=O)[C@@H](NC(=O)[C@H](CO)NC(=O)[C@H](CCC(N)=O)NC(=O)CNC(=O)[C@H](CCC(=O)O)NC(=O)C(C)(C)NC(=O)C(C)(C)NC(=O)[C@@H](NC(=O)[C@H](CCCCNC(C)=O)NC(=O)[C@H](C)NC(=O)[C@H](CCCNC(=N)N)NC(=O)[C@@H](NC(=O)[C@H](CCCCN)NC(=O)[C@H](CCC(=O)O)NC(=O)[C@H](CCCNC(=N)N)NC(=O)CNC(=O)[C@H](CCC(=O)O)NC(=O)[C@H](CC(C)C)NC(C)=O)C(C)C)[C@@H](C)CC)[C@@H](C)O)C(N)=O)C(=O)O)C(=O)O)C(=O)O)C(=O)O [compound 170] (Ac-LEGREKVRAK(Ac)I[Aib][Aib]EGQSTFS[αMeK]RAK(Ac)[AEEA][AEEA][AEEA][AEEA]K([γGlu-γGlu-γGlu-γGlu-Palmitoyl])-NH2)
100	–	–	100	–	–	–	–	0.22	84	101	114	111	111	11900 (≈ 2920 µM)	–	–	CCCCCCCCCCCCCCCCCC(=O)N[C@@H](CCC(=O)N[C@@H](CCC(=O)N[C@@H](CCC(=O)NCCOCCOCC(=O)NCCOCCOCC(=O)NCCOCCOCC(=O)NCCCC[C@H](NC(=O)[C@H](CCCCNC(C)=O)NC(=O)[C@H](CCCCN)NC(=O)[C@H](CCCNC(=N)N)NC(=O)C(C)(C)NC(=O)[C@H](CO)NC(=O)[C@H](Cc1c[nH]c2ccccc12)NC(=O)[C@@H](NC(=O)[C@H](CO)NC(=O)[C@H](CCCC)NC(=O)CNC(=O)[C@H](CCC(=O)O)NC(=O)C(C)(C)NC(=O)C(C)(C)NC(=O)[C@@H](NC(=O)[C@H](CCCCNC(C)=O)NC(=O)[C@H](C)NC(=O)[C@H](CCCNC(=N)N)NC(=O)[C@@H](NC(=O)[C@H](CCCCN)NC(=O)[C@H](CCC(=O)O)NC(=O)[C@H](CCCNC(=N)N)NC(=O)CNC(=O)[C@H](CCC(=O)O)NC(=O)[C@H](CC(C)C)NC(C)=O)C(C)C)[C@@H](C)CC)[C@@H](C)O)C(N)=O)C(=O)O)C(=O)O)C(=O)O [compound 81] (Ac-LEGREKVRAK(Ac)I[Aib][Aib]EG[Nle]STWS[Aib]RKK(Ac)K([AEEA-AEEA-AEEA-γGlu-γGlu-γGlu-Stearoyl])-NH2)
100	–	–	100	–	–	–	–	0.61	100	93	80	99	96	–	5400 (≈ 1280 µM)	5400 (≈ 1280 µM)	CCCCCCCCCCCCCCCCCC(=O)N[C@@H](CCC(=O)N[C@@H](CCC(=O)N[C@@H](CCC(=O)NCCCC[C@H](NC(=O)CCOCCOCCOCCOCCOCCOCCOCCOCCOCCOCCOCCOCCNC(=O)[C@H](CCCCNC(C)=O)NC(=O)[C@H](CCCCN)NC(=O)[C@H](CCCNC(=N)N)NC(=O)C(C)(C)NC(=O)[C@H](CO)NC(=O)[C@H](Cc1c[nH]c2ccccc12)NC(=O)[C@@H](NC(=O)[C@H](CO)NC(=O)[C@H](CCCC)NC(=O)CNC(=O)[C@H](CCC(=O)O)NC(=O)C(C)(C)NC(=O)C(C)(C)NC(=O)[C@@H](NC(=O)[C@H](CCCCNC(C)=O)NC(=O)[C@H](C)NC(=O)[C@H](CCCNC(=N)N)NC(=O)[C@@H](NC(=O)[C@H](CCCCN)NC(=O)[C@H](CCC(=O)O)NC(=O)[C@H](CCCNC(=N)N)NC(=O)CNC(=O)[C@H](CCC(=O)O)NC(=O)[C@H](CC(C)C)NC(C)=O)C(C)C)[C@@H](C)CC)[C@@H](C)O)C(N)=O)C(=O)O)C(=O)O)C(=O)O [compound 33] (Ac-LEGREKVRAK(Ac)I[Aib][Aib]EG[Nle]STWS[Aib]RKK(Ac)[PEG12]K([γGlu-γGlu-γGlu-Stearoyl])-NH2)
